According to patent publication US20250127907A1, “PARP INHIBITORS” (Stablix, Inc., priority 2023, published 2025):
Where two headings read alike, the source gives them in different places.

Legend:
Format in all cases: cell-based
[1] = system: Poly/Mono-ADP Ribose in U2OS cells; assay: PAR in cell western assay (parylation) in U2OS cells; details: Homo sapiens, read-out: Parylation (U2OS)
Description: U2OS cells are seeded at 2667 cells per well in 24 ul medium into poly-D lysine-coated 384 well plate and incubated in the TC incubator for O/N
The next day, test comps are diluted in a source plate and 6 μL of the diluted comp is added to the cell plate; mixed well and incubated for 6 hrs. DNA damage is induced with 2 mM H2O2 for 10 min. After discarding the medium, cells are fixed in ice cold Methanol at for 20 min at −20C. After a wash step at room temperature, cells are permeabilized with 0.05% NP-40 in PBS for 10 min, followed by wash steps. Cells are blocked with 1% BSA, at room temperature for 1 hr. Cells are stained with anti mono/polyADP ribose antibody (E6F6A, Cell signaling, 1:5000) in 1×PBS/1% BSA/0.05% Tween o/n at 4C.
Next Day, cells are washed and incubated with anti-Rabbit 800CV (Licor antibody, 1:500) and CellTag 700 (Licor, 1:800) in 1×PBS/1% BSA/0.05% Tween for 1 h. After washing, plates are scanned using LICOR and are quantified.
Parylation inhibition is reported as % control inhibition.
(§1) The letter codes for the PARP1-enzyme assay include: A (<1 nM), B (>1-10 nM), C (>10-100 nM), D (>100-1000 nM), E (>1000 nM), and “-” is not tested. The letter codes for the PARP trapping assay, and parylation assay include: A (<10 nM), B (>10-100 nM), C (>100-1000 nM), […], E (>10000 nM), and “-” is not tested.

A2780 cells = assay: Cell proliferation assay (A2780); details: Homo sapiens, 168 h, 7 days
Description: (§2) Cells are counted, diluted to desired density and 40 μL of cell suspension is added into each 384-well tissue-culture treated plates. Plates are incubated in Tissue Culture incubator at 37° C./5% C02 overnight.
(§3) Next day, 40 nl test compounds that are prepared from source plates are transferred to the seeded cells from overnight. Plates are incubated at 37° C./5% C02 for a total of 7 days. After 7-day incubation, plates are equilibrated to room temperature and 30 ul of Cell Counting-Lite is added to each well for a 30 min incubation followed by reading on EnVision.
(§4) The letter codes for the cell proliferation assay in A2780, HCC1806, and MDA-MB-436 cells include: A (<10 nM), B (>10-100 nM), C (>100-1000 nM), D (>1000-10000 nM), E (>10000 nM), and “-” is not tested.

HCC1806 cells = assay: Cell proliferation assay (HCC1806); details: Homo sapiens, 168 h, 7 days
Description: as §2, §3, §4

MDA-MB-436 cells = assay: Cell proliferation assay (MDA-MB-436); details: Homo sapiens, 168 h, 7 days
Description: as §2, §3, §4

PARP1 = PARP1 (Homo sapiens, UniProt P09874); assay: PARP trapping assay in U2OS cells; parameters: endogenous in cells; host or cells: U2OS; details: U2OS cells, MMS, 4 hrs; read-out: PARP Trapping (U2OS)
Description: U2OS cells are seeded at 15,000 cells/well in 90 ul medium and incubated in the TC incubator for overnight.
Next day, test compounds are prepared in a source plate along with addition of DNA damage reagent MMS simultaneously and 10 ul of the diluted mixture is added to the cell plate and incubated for 4 hrs under T/C conditions.
After 4 hrs, following aspiration and washing, add 100 ul of cold cytoskeleton removal buffer (0.5% Triton X-100) and incubated for 10 min. At the end of incubation, slowly the buffer is removed, and cells are fixed with ice cold MeOH for 15 min at −20C. Followed by wash steps, cells are blocked with 1×PBS/3% BSA/0.05% Tween for 1 h at room temperature.
Cells are stained with anti PARP1 antibody (abeam ab227244, 1:1000), in 1×PBS/1% BSA overnight at 4C.
Wash and add DAPI, scan cells in Celigo.
Data Analysis: DAPI staining is used to segment nuclei and AF488 fluorescence intensity per nucleus is measured.
as §1

Sequence of PARP1 (P09874 whole entry): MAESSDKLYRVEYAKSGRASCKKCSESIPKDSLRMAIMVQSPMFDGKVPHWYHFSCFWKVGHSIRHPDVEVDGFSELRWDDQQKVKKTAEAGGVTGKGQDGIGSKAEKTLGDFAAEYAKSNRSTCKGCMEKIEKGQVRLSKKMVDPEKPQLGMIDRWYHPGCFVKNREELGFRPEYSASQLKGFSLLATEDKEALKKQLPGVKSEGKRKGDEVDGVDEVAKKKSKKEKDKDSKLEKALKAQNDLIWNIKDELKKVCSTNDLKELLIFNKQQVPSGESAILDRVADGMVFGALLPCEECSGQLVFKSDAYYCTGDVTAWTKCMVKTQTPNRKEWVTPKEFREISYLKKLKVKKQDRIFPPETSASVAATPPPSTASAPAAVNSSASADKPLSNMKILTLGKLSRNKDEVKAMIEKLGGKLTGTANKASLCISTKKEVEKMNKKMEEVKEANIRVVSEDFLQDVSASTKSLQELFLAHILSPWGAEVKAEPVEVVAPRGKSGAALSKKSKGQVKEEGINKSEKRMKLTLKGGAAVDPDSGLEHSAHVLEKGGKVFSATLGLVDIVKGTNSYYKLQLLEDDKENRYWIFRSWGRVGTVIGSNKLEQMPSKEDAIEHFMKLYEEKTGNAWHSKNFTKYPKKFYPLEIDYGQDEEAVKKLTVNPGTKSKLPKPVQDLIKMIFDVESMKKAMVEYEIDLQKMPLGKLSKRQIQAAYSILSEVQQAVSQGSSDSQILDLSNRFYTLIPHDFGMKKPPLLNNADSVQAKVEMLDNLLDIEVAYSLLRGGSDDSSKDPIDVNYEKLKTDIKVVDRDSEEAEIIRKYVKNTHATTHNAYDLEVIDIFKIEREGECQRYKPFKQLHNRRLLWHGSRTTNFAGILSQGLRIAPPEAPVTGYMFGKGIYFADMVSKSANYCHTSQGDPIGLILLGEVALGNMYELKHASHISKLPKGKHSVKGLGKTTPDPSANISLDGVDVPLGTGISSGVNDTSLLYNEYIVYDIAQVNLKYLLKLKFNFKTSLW

Row | SMILES | IC50 ([1]; U2OS cells, 6 hrs, 2 mM H2O2) [nM] | IC50 (A2780 cells) [nM] | IC50 (HCC1806 cells) [nM] | IC50 (MDA-MB-436 cells) [nM] | IC50 (PARP1) [nM] | IC50 ([1]; U2OS, 6 h) [nM]
1 | CCc1cccc(-c2cnc(C(=O)NCCOCCNCC(=O)N3CCN(C(=O)c4cc(Cc5n[nH]c(=O)c6ccccc56)ccc4F)CC3)c(N)c2)c1 [Compound I-402] | 10 to 100 | 10 to 100 | 10 to 100 | < 10 | 100 to 1000 | –
2 | CCc1cccc(-c2cnc(C(=O)NC34CCC(CN5CCN(CC(=O)N6CCN(C(=O)c7cc(Cc8n[nH]c(=O)c9ccccc89)ccc7F)CC6)CC5)(CC3)OC4)c(NC(C)=O)c2)c1 [Compound I-469] | 10 to 100 | 10 to 100 | 10 to 100 | < 10 | 10 to 100 | –
3 | CCc1cccc(-c2cnc(C(=O)NC34CCC(CN5CCN(CC(=O)N6CCN(C(=O)c7cc(Cc8n[nH]c(=O)c9ccccc89)ccc7F)CC6)CC5)(CC3)OC4)c(N)c2)c1 [Compound I-470] | 100 to 1000 | 10 to 100 | 10 to 100 | < 10 | 10 to 100 | –
4 | CCc1cccc(-c2cnc(C(=O)NCCOCCNCC(=O)N3CCN(C(=O)c4cc(Cc5n[nH]c(=O)c6ccccc56)ccc4F)CC3)c(C)c2)c1 [Compound I-489] | 10 to 100 | 10 to 100 | 100 to 1000 | < 10 | 100 to 1000 | –
5 | CC(C)(F)C(=O)N1CCCC(c2cccc(C(=O)N[C@@H](C(=O)N3CCN(CC4CCN(CC(=O)N5CCN(C(=O)c6cc(Cc7n[nH]c(=O)c8ccccc78)ccc6F)CC5)CC4)CC3)C3CCCCC3)c2)C1 (some centres unmarked) [Compound I-528] | 10 to 100 | 10 to 100 | 100 to 1000 | < 10 | 100 to 1000 | –
6 | CCc1cccc(-c2cc(F)c(C(=O)N3CCC(OC4CCN(CC(=O)N5CCN(C(=O)c6cc(Cc7n[nH]c(=O)c8ccccc78)ccc6F)CC5)CC4)CC3)c(F)c2)c1 [Compound I-590] | < 10 | < 10 | 10 to 100 | < 10 | 10 to 100 | –
7 | O=C(CN1CCN(CC2CCN(C(=O)c3c(F)cc(-c4ccccc4)cc3F)CC2)CC1)N1CCN(C(=O)c2cc(Cc3n[nH]c(=O)c4ccccc34)ccc2F)CC1 [Compound I-635] | < 10 | < 10 | 10 to 100 | < 10 | 10 to 100 | –
8 | CCc1cccc(-c2cc(F)c(C(=O)N3CC4CCC3CC4CN3CCN(CC(=O)N4CCN(C(=O)c5cc(Cc6n[nH]c(=O)c7ccccc67)ccc5F)CC4)CC3)c(F)c2)c1 (centres unmarked) [Compound I-690] | 10 to 100 | 100 to 1000 | 10 to 100 | < 10 | 10 to 100 | –
9 | O=C(CN1CCN(CC2CCN(C(=O)c3c(F)cc(-c4cnccn4)cc3F)CC2)CC1)N1CCN(C(=O)c2cc(Cc3n[nH]c(=O)c4ccccc34)ccc2F)CC1 [Compound I-739] | < 10 | 100 to 1000 | 100 to 1000 | < 10 | 10 to 100 | –
10 | CC1(OC(=O)N[C@@H](C(=O)N2CCC(OC3CCN(CC(=O)N4CCN(C(=O)c5cc(Cc6n[nH]c(=O)c7ccccc67)ccc5F)CC4)CC3)CC2)C2CCCCC2)CCC1 [Compound I-749] | 10 to 100 | 10 to 100 | 10 to 100 | < 10 | 10 to 100 | –
11 | O=C(N[C@@H](C(=O)N1CCC(OC2CCN(CC(=O)N3CCN(C(=O)c4cc(Cc5n[nH]c(=O)c6ccccc56)ccc4F)CC3)CC2)CC1)C1CCCCC1)c1cccc(C2CCCN(C(=O)C34CC(F)(C3)C4)C2)c1F (some centres unmarked) [Compound I-750] | 10 to 100 | 10 to 100 | 10 to 100 | < 10 | 10 to 100 | –
12 | O=C(CN1CCN(CC2CCN(C(=O)c3c(F)cc(-c4ccncn4)cc3F)CC2)CC1)N1CCN(C(=O)c2cc(Cc3n[nH]c(=O)c4ccccc34)ccc2F)CC1 [Compound I-768] | 10 to 100 | 100 to 1000 | 100 to 1000 | < 10 | 10 to 100 | –
13 | O=C(CN1CCN(CC2CCN(C(=O)c3c(F)cc(-c4ccccn4)cc3F)CC2)CC1)N1CCN(C(=O)c2cc(Cc3n[nH]c(=O)c4ccccc34)ccc2F)CC1 [Compound I-769] | < 10 | 10 to 100 | 10 to 100 | < 10 | < 10 | –
14 | O=C(CN1CCC(OC2CCN(C(=O)c3c(F)cc(-c4cccnn4)cc3F)CC2)CC1)N1CCN(C(=O)c2cc(Cc3n[nH]c(=O)c4ccccc34)ccc2F)CC1 [Compound I-771] | < 10 | 100 to 1000 | 100 to 1000 | < 10 | 10 to 100 | –
15 | O=C(CN1CCC(OC2CCN(C(=O)c3c(F)cc(-c4ccnnc4)cc3F)CC2)CC1)N1CCN(C(=O)c2cc(Cc3n[nH]c(=O)c4ccccc34)ccc2F)CC1 [Compound I-772] | 10 to 100 | 100 to 1000 | 100 to 1000 | < 10 | < 10 | –
16 | CCc1cccc(-c2cnc(C(=O)NC34CCC(CN5CCN(CC(=O)N6CCN(C(=O)c7cc(Cc8n[nH]c(=O)c9ccccc89)ccc7F)CC6)CC5)(CC3)OC4)c(NC(=O)OC(C)(C)C)c2)c1 [Compound I-800] | 100 to 1000 | 100 to 1000 | 100 to 1000 | < 10 | 10 to 100 | –
17 | CC(C)(C)OC(=O)Nc1cc(-c2cccc(C3COC3)c2)cnc1C(=O)NCCOCCNCC(=O)N1CCN(C(=O)c2cc(Cc3n[nH]c(=O)c4ccccc34)ccc2F)CC1 [Compound I-803] | 10 to 100 | 10 to 100 | 100 to 1000 | < 10 | 100 to 1000 | –
18 | CC(C)(C)OC(=O)Nc1cc(-c2cccc(C#N)c2)cnc1C(=O)NCCOCCNCC(=O)N1CCN(C(=O)c2cc(Cc3n[nH]c(=O)c4ccccc34)ccc2F)CC1 [Compound I-818] | 10 to 100 | 10 to 100 | 100 to 1000 | < 10 | 100 to 1000 | –
19 | CC(C)(C)OC(=O)N1CCCC(c2cccc(Oc3cnnc(N4CCC(OC5CCN(CC(=O)N6CCN(C(=O)c7cc(Cc8n[nH]c(=O)c9ccccc89)ccc7F)CC6)CC5)CC4)c3)c2)C1 (centres unmarked) [Compound I-870] | 10 to 100 | 10 to 100 | 10 to 100 | < 10 | 10 to 100 | –
20 | CC(C)(C)OC(=O)N[C@@H](C(=O)N1CCC(C)(OC2CCN(CC(=O)N3CCN(C(=O)c4cc(Cc5n[nH]c(=O)c6ccccc56)ccc4F)CC3)CC2)CC1)C1CCCCC1 [Compound I-871] | 10 to 100 | 100 to 1000 | 100 to 1000 | < 10 | 10 to 100 | –
21 | CC(C)(C)OC(=O)N[C@@H](C(=O)N1CC[C@H](OC2CCN(CC(=O)N3CCN(C(=O)c4cc(Cc5n[nH]c(=O)c6ccccc56)ccc4F)CC3)CC2)C1)C1CCCCC1 [Compound I-875] | 100 to 1000 | 100 to 1000 | 100 to 1000 | < 10 | 100 to 1000 | –
22 | CC(C)(C)C(=O)N1CCC[C@@](F)(c2cccc(C(=O)N[C@@H](C(=O)N3CCC(OC4CCN(CC(=O)N5CCN(C(=O)c6cc(Cc7n[nH]c(=O)c8ccccc78)ccc6F)CC5)CC4)CC3)C3CCCCC3)c2F)C1 [Compound I-994] | 100 to 1000 | 10 to 100 | 10 to 100 | < 10 | – | –
23 | O=C(c1cc(Cc2n[nH]c(=O)c3ccccc23)ccc1F)N1CCN(C(=O)C2CC2)CC1 [Olaparib, reference compound] | – | 1000 to 10000 | 1000 to 10000 | 10 to 100 | – | < 10
